Results: patent publication US7560597B2, “2′,4′-dichloro-biphenyl-4-yl-hydroxy-ketones and related compounds and their use as therapeutic agents” (The University Court of the University of Aberdeen, priority 2007, dated 2009)
Entries after “also recorded” stand apart in the source; their conditions may differ. Values belong to the compound of their own block, whether it stands above or below them.

Experiments:
[1] = tested on: macrophage cell line J774; assay: Alamar Blue macrophage J774 viability assay; assay type: cell-based; conditions: Mus musculus, J774, 72 h, 72 hours culture with compound
Protocol: Initial screening of candidate compounds was performed using viability assays on cultures of the macrophage cell line J774, which have been used before as a model system for osteoclast survival (see, e.g., Luckman et al., 1998). The assays are based on the survival of the J774 macrophage cell line; macrophages are closely related to osteoclasts, and contain similar high levels of esterase activity.
J774 cells were plated at 10^4 cells per well in 150 μL αMEM (α Modified Eagle Medium) in 96-well plates and grown overnight. The next day, test compounds were added to the cultures, and cultures were continued for another 72 hours. At the end of the culture period, cell survival was determined using an Alamar Blue assay as previously described (see, e.g., Nociari et al., 1998).
Alamar Blue is an oxidation-reduction sensitive indicator. The dye itself is in the oxidised state, which is blue and non-fluorescent. The dye can accept electrons from reducing species, such as NADPH and FADH, to form a reduced dye species, which is red and fluorescent. Thus the transformation from oxidised form to reduced form can be measured by fluorimetric or colourimetric means. For fluorescence measurements, 530-560 nm excitation and 590 nm emission wavelengths are typically used. For colourimetric measurements, absorbance is measured at 570 nm (reduced form) and 600 nm (oxidised form) and a simple calculation performed to determine the relative quantities of the two species.
A high ratio of the reducing species, NADPH and FADH, to the corresponding oxidised species, NADP and FAD, is an indicator that cells are proliferating and viable. A low ratio indicates cells that are quiescent or non-viable.
Briefly, Alamar Blue (Biosource International) was added undiluted to the each well (1:10 v/v, 15 μL). The plate was incubated at 37° C. for 3-4 hours and the fluorescence was measured at 590 nm, with a 25 nm bandwidth. A high reading indicated cells with normal viability, and a low reading indicated cells that have been damaged and are no longer proliferating normally. The controls gave a high fluorescence reading, indicating a high number of live, healthy cells. A potent test compound gave a low fluorescence reading. The average results for each test compound (n=5) were expressed as a percent (%) of the average control value.
Addition of Compounds. All of the compounds studied were made up as 100 mM solutions in DMSO. These stock solutions were then diluted 100 or 1000× in culture medium (αMEM). From these 1 mM or 100 μM solutions, convenient quantities (3-15 μL) were added directly to the wells so as to give the desired final compound concentration.

[2] = tested on: mouse-ovariectomy bone loss model; assay: Ovariectomy induced bone loss (pQCT trabecular bone density); assay type: in vivo; conditions: OVX mice, 20 mg/kg orally
Protocol: Animals. Female 9 week-old C57/BL6 mice were used. Animals were housed in a designated animal facility and routinely maintained on a 12 hour:12 hour light:dark cycle and given ad libitum access to food and water.
Ovariectomy induced bone loss. Bilateral ovariectomy (Ovx) was performed under general anaesthesia. Sham ovariectomy (Sham) was similarly performed but with externalisation and replacement of the ovaries. Animals were given a daily injection of (a) test compound (e.g., 10 mg/kg) in vehicle (corn oil), or (b) vehicle (corn oil). After 21 days, the animals were killed, and the tibial bones were dissected and used for bone mineral density measurements and histomorphometric analysis (see below).
Bone Mineral Measurements. Measurements of bone mineral density (BMD) at the left proximal tibial metaphysis were determined by peripheral quantitative computed tomography (pQCT) using an XCT Research M bone densitometer with a voxel size of 70 μm and analysis software version 5.1.4 (Stratec Medizintechnik, Pforzheim, Germany). […]
Statistical Analyses. […] Significant differences between groups were determined by ANOVA followed by post-hoc testing using Dunnet's post-test. […]
Compounds ABD68, ABD328 and ABD355 (dosage 20 mg/kg, orally) were investigated in vivo using ovariectomy induced bone loss assessed using peripheral quantitative computed tomography, as described above.

[3] = In vivo pharmacokinetics: serum levels after oral dosage (HPLC/UV); parameters: species or system rat; conditions: rats, 10 mg/kg oral
Protocol: Absorption and metabolic stability were studied using an in vivo pharmacokinetics assay. Drug levels assessed using HPLC/UV.
Following overnight starvation, male Wistar rats (250 g) were given a bolus gavage of 500 μL of a solution of test compound in corn oil (5 mg/ml). Blood samples (1 mL, whole blood) were taken at various time intervals and the serum collected following centrifugation. Samples were frozen until required for analysis.
Ethyl acetate (4 mL) was added to the defrosted serum and the samples mixed for 20 minutes. Following centrifugation, the ethyl acetate layer was collected and evaporated under a stream of nitrogen. The residue was reconstituted in mobile phase and 20 μL injected onto the chromatogram.
Standard calibration curves were prepared for each of the test compounds and were linear in the range of 1 ng/mL to 250 ng/mL.
• Column: HIRPB C18 (150×4.6 mm). • Mobile phase: 60% 25 mM ammonium acetate, pH 4; 40% acetonitrile. • Flow rate: 1 mL/minute. • Detection: Peaks detected by UV absorption at λmax in the range of 240-275 nm.
Serum levels of compounds ABD328, ABD345 and ABD430 following oral dosage (10 mg/kg) over the course of 60 minutes were investigated in vivo in rats using an HPLC/UV detection system, as described above.

[4] = tested on: mouse collagen-induced arthritis model; assay: Collagen-induced arthritis model, joint inflammation scoring; assay type: in vivo; conditions: for total joint score (sum of joint inflammation scores of the study group): 21-day period, n=10, untreated group 47, FIG. 3
Protocol: Collagen-induced arthritis (CIA) was induced in 8-week old male DBA/1 mice, by intradermal injection of 100 μL of chicken collagen type II (2 mg/mL) suspended in complete Freund's adjuvant supplemented with 2 mg/mL devitalised M. Tuberculosis into the base of the tail. This will lead to joint inflammation in >80% of the animals within 4 weeks. Treatment with ABD328 (10 mg/kg/day, orally or i.p., delivered in corn oil) was started when joint inflammation became apparent in the first animals (in this experiment 15 days after injection), and the experiment was terminated 3 weeks later. For each animal, the scores for all four joints were added (maximal score=12).
Compound ABD328 (dosage 10 mg/kg, i.p. or oral) was investigated in vivo using the collagen-induced arthritis model, assessed using joint inflammation severity scoring, as described above.

[5] = Table 3 (variation of W), J774 cells

SMILES: OCCCCC[C@H](O)c1ccc(-c2ccc(Cl)cc2Cl)cc1 [ABD513, (S)-1-(2′,4′-Dichloro-biphenyl-4-yl)-hexane-1,6-diol]
- IC50 [1, 5]: 11 ± 4 µM

SMILES: OCCCCCC(O)c1ccc(-c2ccc(Cl)cc2Cl)cc1 (racemic) [ABD300, (R,S)-1-(2′,4′-Dichloro-biphenyl-4-yl)-hexane-1,6-diol]
- IC50 [1, 5]: 8 ± 2 µM

SMILES: OCCCCC/C(=N\O)c1ccc(-c2ccc(Cl)cc2Cl)cc1 [ABD468, 1-(2′,4′-Dichloro-biphenyl-4-yl)-6-hydroxy-hexan-1-one oxime]
- IC50 [1, 5]: 7 ± 2 µM

- metabolic stability (in words) ([3]; in vivo serum levels): good degree of metabolic stability
- oral absorption (blood serum levels), in words ([3]; over 60 minutes, FIG. 2): well absorbed
SMILES: O=C(CCCCCO)c1ccc(-c2ccc(Cl)cc2Cl)cc1 [ABD328, 1-(2′,4′-Dichloro-biphenyl-4-yl)-6-hydroxy-hexan-1-one]
- IC50 ([1]; Table 2, J774 cells): 12 ± 2 µM
- IC50 [1, 5]: 11 ± 3 µM
- effect on ovariectomy-induced bone loss (in words) ([2]; 20 mg/kg): fully reverse the effects of ovariectomy-induced bone loss; also recorded: fully prevents bone loss
- increase in trabecular bone density ([2]; relative to the control group (OVX no drug: 34% decrease), FIG. 1): 6%
- total joint score (sum of joint inflammation scores of the study group) ([4]; 10 mg/kg/day i.p.): 5
- total joint score (sum of joint inflammation scores of the study group) ([4]; 10 mg/kg/day orally): 13
- effect on collagen-induced arthritis / inflammation (in words) ([4]; 10 mg/kg/day, i.p. or oral): fully reverse the effects of collagen-induced arthritis; also recorded: prevents inflammation

SMILES: OCCCCC[C@@H](O)c1ccc(-c2ccc(Cl)cc2Cl)cc1 [ABD511, (R)-1-(2′,4′-Dichloro-biphenyl-4-yl)-hexane-1,6-diol]
- IC50 [1, 5]: 4 ± 2 µM
